The results in this text go back to the NIST ThermoML archive (doi:10.1021/acs.jced.7b00766).

± gives the expanded uncertainty stated by the source.

One may read the vapor or sublimation pressure as the pressure of vapour in equilibrium with the condensed phase.

The conditions of this data set: Liquid, Ebulliometric method (Recirculating still).

With `Nc1ccccc1` [aniline], the “vapor or sublimation pressure” value (450.25 K) was determined as 85 ± 1 kPa.
Turning to `CCCCO` [butan-1-ol], under “385.75 K”, the “vapor or sublimation pressure” value came out at 85 ± 1 kPa.
On to `CCCCCCC` [heptane], for which, under “365.65 K”, the “vapor or sublimation pressure” value worked out at 85 ± 1 kPa.
Regarding `CO` [methanol], where the note is “333.15 K”, the “vapor or sublimation pressure” value is recorded as 85 ± 1 kPa.
